Laboratory results reported in ChEMBL document CHEMBL4043145, “Pyridine-pyrimidine amides that prevent HGF-induced epithelial scattering by two distinct mechanisms” (Bioorg Med Chem Lett, 2017).

Experiments:
Assay type in all cases: functional
MCF7 [1] = assay: Induction of apoptosis in human MCF7 cells assessed as early apoptotic cells at 100 nM by 7-AAD/Annexin staining-based assay (reference value: 2 to 2.7%)
MCF7 [2] = assay: Induction of apoptosis in human MCF7 cells assessed as late apoptotic cells at 100 nM by 7-AAD/Annexin staining-based assay (reference value: 1 to 2.1%)
MCF7 [3] = assay: Induction of apoptosis in human MCF7 cells assessed as viable cells at 1000 nM by 7-AAD/Annexin staining-based assay (reference value: 92.6 to 96.8%); settings: read-out: Activity
PC-3 [4] = assay: Induction of apoptosis in human p53-null PC3 cells assessed as late apoptotic cells at 300 nM by 7-AAD/Annexin staining-based assay (reference value: 0.4 to 1.6%)
A2780 [5] = assay: Induction of apoptosis in human A2780 cells assessed as early apoptotic cells at 100 nM by 7-AAD/Annexin staining-based assay (reference value: 1.7 to 2.1%)
PC-3 [6] = assay: Induction of apoptosis in human p53-null PC3 cells assessed as late apoptotic cells at 100 nM by 7-AAD/Annexin staining-based assay (reference value: 0.4 to 1.6%)
T47D [7] = assay: Induction of apoptosis in human T47D cells assessed as nuclear debris at 300 nM by 7-AAD/Annexin staining-based assay (reference value: 0.2 to 7.7%)
MFE-296 [8] = assay: Induction of apoptosis in human MFE296 cells assessed as early apoptotic cells at 300 nM by 7-AAD/Annexin staining-based assay (reference value: 1.5 to 2.1%)
PC-3 [9] = assay: Induction of apoptosis in human p53-null PC3 cells assessed as nuclear debris at 100 nM by 7-AAD/Annexin staining-based assay (reference value: 0.1 to 0.5%)
MCF7 [10] = assay: Induction of apoptosis in human MCF7 cells assessed as late apoptotic cells at 300 nM by 7-AAD/Annexin staining-based assay (reference value: 1 to 2.1%)
PC-3 [11] = assay: Induction of apoptosis in human p53-null PC3 cells assessed as late apoptotic cells at 1000 nM by 7-AAD/Annexin staining-based assay (reference value: 0.4 to 1.6%)
PC-3 [12] = assay: Induction of apoptosis in human p53-null PC3 cells assessed as viable cells at 300 nM by 7-AAD/Annexin staining-based assay (reference value: 96.5 to 98.6%); settings: read-out: Activity
MFE-280 [13] = assay: Induction of apoptosis in human MFE280 cells assessed as nuclear debris at 1000 nM by 7-AAD/Annexin staining-based assay (reference value: 0.5 to 2.3%)
MFE-280 [14] = assay: Induction of apoptosis in human MFE280 cells assessed as nuclear debris at 300 nM by 7-AAD/Annexin staining-based assay (reference value: 0.5 to 2.3%)
MFE-280 [15] = assay: Induction of apoptosis in human MFE280 cells assessed as viable cells at 1000 nM by 7-AAD/Annexin staining-based assay (reference value: 84.9 to 87.7%); settings: read-out: Activity
MFE-296 [16] = assay: Induction of apoptosis in human MFE296 cells assessed as nuclear debris at 100 nM by 7-AAD/Annexin staining-based assay (reference value: 0.4 to 0.8%)
A2780 [17] = assay: Induction of apoptosis in human A2780 cells assessed as early apoptotic cells at 1000 nM by 7-AAD/Annexin staining-based assay (reference value: 1.7 to 2.1%)
A2780 [18] = assay: Induction of apoptosis in human A2780 cells assessed as viable cells at 300 nM by 7-AAD/Annexin staining-based assay (reference value: 95 to 96.7%); settings: read-out: Activity
MCF7 [19] = assay: Induction of apoptosis in human MCF7 cells assessed as early apoptotic cells at 300 nM by 7-AAD/Annexin staining-based assay (reference value: 2 to 2.7%)
T47D [20] = assay: Induction of apoptosis in human T47D cells assessed as viable cells at 300 nM by 7-AAD/Annexin staining-based assay (reference value: 74.5 to 94.5%); settings: read-out: Activity
A2780 [21] = assay: Induction of apoptosis in human A2780 cells assessed as nuclear debris at 1000 nM by 7-AAD/Annexin staining-based assay (reference value: 0.3 to 1.1%)
MFE-296 [22] = assay: Induction of apoptosis in human MFE296 cells assessed as viable cells at 100 nM by 7-AAD/Annexin staining-based assay (reference value: 90.9 to 94.4%); settings: read-out: Activity
T47D [23] = assay: Induction of apoptosis in human T47D cells assessed as viable cells at 1000 nM by 7-AAD/Annexin staining-based assay (reference value: 74.5 to 94.5%); settings: read-out: Activity
MFE-296 [24] = assay: Induction of apoptosis in human MFE296 cells assessed as nuclear debris at 1000 nM by 7-AAD/Annexin staining-based assay (reference value: 0.4 to 0.8%)
MFE-296 [25] = assay: Induction of apoptosis in human MFE296 cells assessed as late apoptotic cells at 1000 nM by 7-AAD/Annexin staining-based assay (reference value: 3.6 to 6.6%)
T47D [26] = assay: Induction of apoptosis in human T47D cells assessed as early apoptotic cells at 1000 nM by 7-AAD/Annexin staining-based assay (reference value: 1.6 to 4.3%)
MFE-296 [27] = assay: Induction of apoptosis in human MFE296 cells assessed as late apoptotic cells at 100 nM by 7-AAD/Annexin staining-based assay (reference value: 3.6 to 6.6%)
A2780 [28] = assay: Induction of apoptosis in human A2780 cells assessed as late apoptotic cells at 1000 nM by 7-AAD/Annexin staining-based assay (reference value: 1.2 to 2.2%)
A2780 [29] = assay: Induction of apoptosis in human A2780 cells assessed as nuclear debris at 300 nM by 7-AAD/Annexin staining-based assay (reference value: 0.3 to 1.1%)
A2780 [30] = assay: Induction of apoptosis in human A2780 cells assessed as nuclear debris at 100 nM by 7-AAD/Annexin staining-based assay (reference value: 0.3 to 1.1%)
T47D [31] = assay: Induction of apoptosis in human T47D cells assessed as early apoptotic cells at 300 nM by 7-AAD/Annexin staining-based assay (reference value: 1.6 to 4.3%)
A2780 [32] = assay: Induction of apoptosis in human A2780 cells assessed as viable cells at 1000 nM by 7-AAD/Annexin staining-based assay (reference value: 95 to 96.7%); settings: read-out: Activity
MFE-280 [33] = assay: Induction of apoptosis in human MFE280 cells assessed as nuclear debris at 100 nM by 7-AAD/Annexin staining-based assay (reference value: 0.5 to 2.3%)
T47D [34] = assay: Induction of apoptosis in human T47D cells assessed as late apoptotic cells at 300 nM by 7-AAD/Annexin staining-based assay (reference value: 3 to 13.4%)
PC-3 [35] = assay: Induction of apoptosis in human p53-null PC3 cells assessed as nuclear debris at 300 nM by 7-AAD/Annexin staining-based assay (reference value: 0.1 to 0.5%)

SMILES	Activity (MCF7 [1])	Activity (MCF7 [2])	viability at 1 µM (MCF7 [3])	Activity (PC-3 [4])	Activity (A2780 [5])	Activity (PC-3 [6])	Activity (T47D [7])	Activity (MFE-296 [8])	Activity (PC-3 [9])	Activity (MCF7 [10])	Activity (PC-3 [11])	viability at 0.3 µM (PC-3 [12])	Activity (MFE-280 [13])	Activity (MFE-280 [14])	viability at 1 µM (MFE-280 [15])	Activity (MFE-296 [16])	Activity (A2780 [17])	viability at 0.3 µM (A2780 [18])	Activity (MCF7 [19])	viability at 0.3 µM (T47D [20])	further results
CN[C@@H]1C[C@H]2O[C@@](C)([C@@H]1OC)n1c3ccccc3c3c4c(c5c6ccccc6n2c5c31)C(=O)NC4 [STAUROSPORINE]	3.4%	3.1%	62.1%	0.2%	5.4%	0.7%	0.4%	6.8%	0.1%	7.9%	1.2%	98.6%	3.1%	0.9%	47.5%	2.4%	5.1%	87.1%	7.4%	90.6%	Activity (A2780 [21]): 4.3%; viability at 0.1 µM (MFE-296 [22]): 83.6%; viability at 1 µM (T47D [23]): 88.4%; Activity (MFE-296 [24]): 15.1%; Activity (MFE-296 [25]): 60.3%; Activity (T47D [26]): 6.2%; Activity (MFE-296 [27]): 6.6%; Activity (A2780 [28]): 32.8%; Activity (A2780 [29]): 1%; Activity (A2780 [30]): 0.4%; Activity (T47D [31]): 5.5%; viability at 1 µM (A2780 [32]): 57.8%; Activity (MFE-280 [33]): 1.1%; Activity (T47D [34]): 3.5%; Activity (PC-3 [35]): 0.1%
O=C(Nc1ccc(-c2cccc(Cl)c2)cn1)c1cncnc1	3.3%	1.9%	94%	0.8%	3.6%	0.4%	0.3%	2.8%	0.1%	3.1%	1.2%	98.2%	0.7%	0.7%	85.1%	1.3%	4.5%	92.1%	4.1%	86.5%	Activity (A2780 [21]): 1.4%; viability at 0.1 µM (MFE-296 [22]): 90.9%; viability at 1 µM (T47D [23]): 82.9%; Activity (MFE-296 [24]): 2.9%; Activity (MFE-296 [25]): 9.1%; Activity (T47D [26]): 12%; Activity (MFE-296 [27]): 5.7%; Activity (A2780 [28]): 4.1%; Activity (A2780 [29]): 0.9%; Activity (A2780 [30]): 0.5%; Activity (T47D [31]): 9.5%; viability at 1 µM (A2780 [32]): 90%; Activity (MFE-280 [33]): 0.6%; Activity (T47D [34]): 3.8%; Activity (PC-3 [35]): 0.2%
